# Source: PubChem BioAssay AID651650 (Sanford-Burnham Center for Chemical Genomics, 2012)
# Calls of active or inactive are those of the source.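 Rule for the calls: active = mean IC50 below 20 µM in each of the two panels, so potent in both; inactive = the rest.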
# Molecular target: Neuropilin-1 (Homo sapiens) (UniProt O14786)
# Assay: NRP-1 b1b2 CendR peptide binding inhibitors, dose response, biochemical, FP and AlphaScreen panel (AID 651650)
# Details: NRP-1 b1b2 / RPARPAR peptide binding, FP or AlphaScreen
# [1] = AlphaScreen, run 1, individual panel run IC50
# [2] = FP, run 1, individual panel run IC50
# [3] = FP, run 2, individual panel run IC50
# Neuropilin-1 (Homo sapiens), sequence (O14786 whole entry, looked up): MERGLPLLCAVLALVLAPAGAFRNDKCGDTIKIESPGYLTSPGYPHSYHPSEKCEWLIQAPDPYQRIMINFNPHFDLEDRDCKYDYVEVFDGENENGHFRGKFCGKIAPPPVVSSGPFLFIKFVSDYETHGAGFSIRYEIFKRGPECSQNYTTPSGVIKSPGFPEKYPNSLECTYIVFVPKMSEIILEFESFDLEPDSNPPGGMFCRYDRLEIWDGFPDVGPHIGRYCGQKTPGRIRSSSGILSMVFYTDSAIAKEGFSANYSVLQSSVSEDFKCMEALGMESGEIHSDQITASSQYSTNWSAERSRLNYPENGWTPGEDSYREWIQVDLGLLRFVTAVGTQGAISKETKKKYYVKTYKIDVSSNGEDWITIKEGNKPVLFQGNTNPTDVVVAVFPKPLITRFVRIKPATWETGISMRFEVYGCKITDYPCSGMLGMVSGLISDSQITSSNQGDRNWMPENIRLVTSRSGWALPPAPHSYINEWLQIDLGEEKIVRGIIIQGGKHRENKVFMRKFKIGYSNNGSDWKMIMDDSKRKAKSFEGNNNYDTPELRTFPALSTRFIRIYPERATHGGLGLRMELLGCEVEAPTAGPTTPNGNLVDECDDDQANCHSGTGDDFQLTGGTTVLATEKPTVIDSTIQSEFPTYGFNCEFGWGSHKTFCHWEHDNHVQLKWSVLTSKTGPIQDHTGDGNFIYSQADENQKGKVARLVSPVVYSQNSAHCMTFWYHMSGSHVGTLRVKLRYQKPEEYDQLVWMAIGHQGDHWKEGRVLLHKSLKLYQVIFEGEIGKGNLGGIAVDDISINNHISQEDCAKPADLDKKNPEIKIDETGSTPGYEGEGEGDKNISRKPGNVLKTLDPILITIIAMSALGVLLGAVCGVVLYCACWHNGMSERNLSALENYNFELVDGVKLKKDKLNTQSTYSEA
"IC50 (AlphaScreen, mean of runs)",IC50 [1] [µM],"IC50 (FP, mean of runs)",IC50 [2] [µM],IC50 [3] [µM],SMILES
9.53 µM,9.53,> 95 µM (inactive),> 95,> 95,C#CCCOC(=O)N1C2=NC(C(=O)OC)=C(C(=O)OC)[C@@H]3N(C)c4ccccc4[C@]23C[C@H]1CO
> 100 µM (inactive),> 100,> 95 µM (inactive),> 95,> 95,O=C(Nc1ccc(F)cc1)c1cc(S(=O)(=O)Nc2ccc(F)cc2)cs1
> 100 µM (inactive),> 100,> 95 µM (inactive),> 95,> 95,Cc1ccc(Cn2c(C(C)Nc3nc(-c4ccc(Cl)c([N+](=O)[O-])c4)cs3)nc3cc(C(F)(F)F)ccc32)cc1 (stereo not given)
> 100 µM (inactive),> 100,> 95 µM (inactive),> 95,> 95,CC(C(=O)N1CCN(c2ccc(Cl)cc2)CC1)c1ncc(C(F)(F)F)cc1Cl (stereo not given)
11.6 µM,11.6,> 95 µM (inactive),> 95,> 95,O=C(CCc1ccc(Oc2cc([N+](=O)[O-])cc([N+](=O)[O-])c2)cc1)N1CCCCCC1
> 100 µM (inactive),> 100,> 95 µM (inactive),> 95,> 95,CC(C)(C)OC(=O)N1CCN(C(=O)c2[nH]cnc2C(=O)NCc2ccccc2)CC1
inactive,35.5,> 95 µM (inactive),> 95,> 95,CCOC(=O)C1=C(C)NC2=C(C(=O)CCC2)C1c1cn(Cc2ccc(Cl)cc2Cl)nc1-c1ccccc1 (stereo not given)
> 100 µM (inactive),> 100,> 95 µM (inactive),> 95,> 95,CCCCc1ccc(S(=O)(=O)N2CCC3(CC2)OCCO3)cc1
> 100 µM (inactive),> 100,> 95 µM (inactive),> 95,> 95,CC(=O)c1cccc(S(=O)(=O)N2CCC(C(=O)O)(c3ccccc3)CC2)c1
> 100 µM (inactive),> 100,> 95 µM (inactive),> 95,> 95,Nc1ccc(C#Cc2c(-c3ccsc3)oc3ccc(N4CCOCC4)cc23)cc1
> 100 µM (inactive),> 100,> 95 µM (inactive),> 95,> 95,O=C(Cc1ccc(F)cc1)N1CCN=C1SCc1ccc([N+](=O)[O-])cc1
inactive,25.8,inactive,33.9,> 95,c1ccc2c(c1)CCCN2Cc1nnnn1CC1CCCO1 (stereo not given)
> 100 µM (inactive),> 100,> 95 µM (inactive),> 95,> 95,Cc1ccc(C)c(-n2c(SCC(=O)NC(C(=O)O)C(C)C)nnc2-c2cccc(Cl)c2)c1 (stereo not given)
inactive,32.8,> 95 µM (inactive),> 95,> 95,CCC1CCCCN1C(=S)Nc1ccc(OC(F)F)cc1 (stereo not given)
> 100 µM (inactive),> 100,> 95 µM (inactive),> 95,> 95,O=C(O/N=C1/CCSc2ccccc21)c1ccccc1
> 100 µM (inactive),> 100,> 95 µM (inactive),> 95,> 95,COCCNC(=O)c1cc(-c2ccccc2)nn1CC1CC(c2cccc([N+](=O)[O-])c2)=NO1 (stereo not given)
> 100 µM (inactive),> 100,> 95 µM (inactive),> 95,> 95,O=C(NCCN1CCOCC1)c1cc(-c2ccc(F)cc2)on1
> 100 µM (inactive),> 100,> 95 µM (inactive),> 95,> 95,COC(=O)C1=C(C)NC(C)=C(C(=O)OC)C1C(=O)OC(C)C(=O)c1ccccc1 (stereo not given)
> 100 µM (inactive),> 100,> 95 µM (inactive),> 95,> 95,Cc1ccc(NC=C(S(=O)(=O)c2ccccc2)S(=O)(=O)c2ccccc2)cc1
> 100 µM (inactive),> 100,inactive,53.3,61.7,COc1ccc(C2CC(C(F)(F)F)n3nc(C(=O)O)c(Cl)c3N2)cc1OC (stereo not given)
> 100 µM (inactive),> 100,> 95 µM (inactive),> 95,> 95,CCN(CC(=O)NCc1cccs1)S(=O)(=O)c1ccc(C(C)C)cc1
> 100 µM (inactive),> 100,> 95 µM (inactive),> 95,> 95,Cc1ccc(C(=O)Nc2nnc([C@H]3C[C@H](O)[C@@H](CO)O3)s2)cc1

"IC50 (AlphaScreen, mean of runs)",IC50 [1] [µM],"IC50 (FP, mean of runs)",IC50 [2] [µM],IC50 [3] [µM],SMILES
> 100 µM (inactive),> 100,> 95 µM (inactive),> 95,> 95,COc1ccc(-c2csc(Nc3cccnc3)n2)cc1
> 100 µM (inactive),> 100,> 95 µM (inactive),> 95,> 95,Cc1ccc(C(=O)OCC(=O)c2ccc(Cl)s2)s1
5.63 µM,5.63,> 95 µM (inactive),> 95,> 95,COC(=O)CCCC1=CC2=CC(=O)C(C)(OC(=O)c3cccs3)C(=O)C2=CN1CCCOC(C)C (stereo not given)
inactive,44.4,> 95 µM (inactive),> 95,> 95,O=C1CSC(c2cn(-c3ccccc3)nc2-c2cccs2)N1CC1CCCO1 (stereo not given)
> 100 µM (inactive),> 100,> 95 µM (inactive),> 95,> 95,O=C(NCCCN1CCCCCC1)c1ccc(CS(=O)(=O)Cc2ccccc2F)o1
> 100 µM (inactive),> 100,> 95 µM (inactive),> 95,> 95,COc1ccc([C@H]2/C=C\CN(S(C)(=O)=O)[C@@H](C)C(=O)N2Cc2ccc(F)cc2)cc1
> 100 µM (inactive),> 100,> 95 µM (inactive),> 95,> 95,CCc1cc(C(=O)OC)c(NC(=O)c2ccoc2C)s1
11.5 µM,11.5,> 95 µM (inactive),> 95,> 95,O=c1c2ccccc2nc2n1C(CSc1ccc(F)cc1)CS2 (stereo not given)
> 100 µM (inactive),> 100,> 95 µM (inactive),> 95,> 95,CCCc1c(C)nc(N2CCN(c3ccccc3OC)CC2)[nH]c1=O
19.2 µM,19.2,> 95 µM (inactive),> 95,> 95,O=C(NNC(=O)c1ccccc1Cl)c1cccnc1
> 100 µM (inactive),> 100,> 95 µM (inactive),> 95,> 95,Oc1ccc(-c2nc3ncccn3c2Nc2ccc3c(c2)OCO3)cc1
> 100 µM (inactive),> 100,> 95 µM (inactive),> 95,> 95,O=C(CSc1nc2ccc(Cl)cc2[nH]1)NCCc1ccccc1
> 100 µM (inactive),> 100,> 95 µM (inactive),> 95,> 95,COc1cc(C(=O)OCC(=O)Nc2c(F)c(F)c(F)c(F)c2F)cc(OC)c1OC
> 100 µM (inactive),> 100,> 95 µM (inactive),> 95,> 95,COc1cccc(OCC(=O)NNC(=S)Nc2ccc(Cl)cc2Cl)c1
> 100 µM (inactive),> 100,> 95 µM (inactive),> 95,> 95,C=CCNC(=O)c1onc(CSc2ccc(F)c(F)c2)c1C(=O)NCC=C
inactive,27.8,inactive,> 95,38.7,CCOC(=O)CNc1ccc2c(c1)OCO2
> 100 µM (inactive),> 100,> 95 µM (inactive),> 95,> 95,O=C(Nc1cc(C(F)(F)F)ccc1N1CCCC1)C1CC(=O)N(Cc2ccccc2)C1 (stereo not given)
> 100 µM (inactive),> 100,> 95 µM (inactive),> 95,> 95,COc1ccccc1C(=O)NC(=O)CSc1nncn1C
> 100 µM (inactive),> 100,> 95 µM (inactive),> 95,> 95,CSCCC(NC(=O)c1ccc(Cl)cc1Cl)C(=O)NCC(c1cccs1)N(C)C (stereo not given)
inactive,25.1,> 95 µM (inactive),> 95,> 95,CCOC(=O)Cc1cnc(NC(=O)NC(C(=O)OCC)(c2ccccc2)C(F)(F)F)s1 (stereo not given)
> 100 µM (inactive),> 100,> 95 µM (inactive),> 95,> 95,C=C1CCN([C@@H](CC(C)C)C(=O)NCCC(C)C)S(=O)(=O)c2ccccc21

SMILES,"IC50 (AlphaScreen, mean of runs)",IC50 [1] [µM],"IC50 (FP, mean of runs)",IC50 [2] [µM],IC50 [3] [µM]
COC(=O)C1=C(c2cccc(C#N)c2)C[C@@H]2CC[C@H]1N2C(=O)NCCO,> 100 µM (inactive),> 100,> 95 µM (inactive),> 95,> 95
